{"source": "patent US20250152731A1", "about": "“ANTI-TROP2 ANTIBODY COMBINATION THERAPIES AND METHODS OF USE THEREOF” (priority 2021, published 2025)", "key": {"[1]": {"system": "BCX-010, BCX-011 and Sum-159 cells", "assay": "Annexin V flow cytometry apoptosis assay", "assay_type": "cell-based, human", "conditions": "decitabine 1 μM and/or sacituzumab govitecan 0.1 μM, three days; FIGS. 5A-5D", "description": "In order to determine the effect of decitabine and/or Zeb1 knockdown treatment on sacituzumab govitecan activity, apoptosis was measured in breast cancer cell lines. BCX-010 cells (FIG. 5A and FIG. 5B), BCX-011 cells (FIG. 5C) and Sum-159 cells (FIG. 5D) were seeded in 6-cm plates, then treated with decitabine (1 μM) and/or sacituzumab govitecan (0.1 μM) for three days in an apoptosis assay. After the three day treatment, cells were stained with Annexin V. Flow cytometry was performed to sort Annexin V positive cells (apoptotic cells) (FIGS. 5A-5D). Percentage of apoptotic cells was calculated by Annexin V positive cells over total cell populations.\nCells were seeded in 6 cm plates at a density of 3×10^5 cells per well in triplicates for each treatment group. The following day, cells were treated with decitabine and SG at 1 μM and 0.1 μM respectively, or their combination. […] Using Annexin-V-FLUOS Staining Kit (Roche), cells were stained with Annexin V fluorescence and propidium iodide (PI), following manufacturer's protocol. Samples were analyzed by flow cytometry. Percentage of Annexin V positive apoptotic cells were calculated.\nIn apoptosis assay, cells were treated with decitabine at 1 μM, SG at 0.1 μM, or their combination for 3 days. Annexin V positive apoptotic cells were measured by flow cytometry. Percentage of apoptotic cells over total cell populations was calculated (FIG. 7D)."}, "SLFN11": {"system": "SLFN11", "assay": "Immunoblotting of SLFN11 in breast cancer cell lines", "assay_type": "cell-based, human", "conditions": "BCX-010CL, HCC-1937, HCC-1143, MDA-MB-157; 1 μM for 3 days; FIG. 10A", "procedure": "(§1) Following treatments, cells were washed with cold PBS and lysed in 1× Laemmli buffer. The protein concentrations in the cell lysates were measured using Pierce BCA protein assay Kit (ThermoFisher). The same amount protein for each sample (20-50 μg/lane) was loaded to SDS-PAGE gel, followed by transferring proteins to a 0.2 μm nitrocellulose membrane (Bio-Rad Laboratories). Membranes were blocked with blocking buffer Blocker Casein in PBS (ThermoFisher) at room temperature for 1 hour, followed by immunoblotting with the primary antibodies in 5% BSA TBST buffer at room temperature overnight. After washing with TBST buffer, the immunoblotting membrane was then probed with the secondary antibodies with fluorescence conjugation. The immunoblots were visualized and the immunoblotting signal intensity quantitated using the Odyssey IR imaging system (Li-Cor Biosciences)."}, "TROP2 [2]": {"system": "TROP2", "assay": "Immunoblotting of TROP2 protein in breast cancer cell lines", "assay_type": "cell-based, human", "procedure": "as §1\nFive cell lines (BCX-011, BCX-010, Sum-159, BCX-010 transfected with control shRNA, and BCX-010 transfected with Zeb1 shRNA) were treated with decitabine (a DNA methyltransferase inhibitor) at 1 μM for 3 days (FIG. 1B). To knockdown Zeb1, BCX-010 cells were transduced with a lentivirus containing Zeb1 shRNA, followed by puromycin selection.\n(§2) Breast cancer cell lines BCX-010CL, BCX-011CL, and SUM159 cells were treated with decitabine, azacytidine, panobinostat, vorinostat, tazemetostat at […] respectively for 3 days, followed by immunoblotting for E-cad and TROP2 with β-actin as control (FIG. 1D).\n(§3) The treated cells were lysed. The cell lysate samples were loaded onto SDS-PAGE gel for the western blot. Antibodies ab-214488 and cst-3195 were used to detect TROP2 and E-cadherin respectively. β-actin was used as loading control (FIG. 1C)."}, "[3]": {"system": "BCX-010CL, HCC-1954, HCC-1143, and MDA-MB-157 cells", "assay": "Cell survival assay of Sacituzumab govitecan with or without decitabine", "assay_type": "cell-based, human", "conditions": "HCC-1954, HCC-1143, MDA-MB-157, decitabine co-treatment, 3 days, FIG. 10C", "description": "BCX-010CL, HCC-1954, HCC-1143, and MDA-MB-157 cells were treated with Sacituzumab govitecan at serial dilutions, with or without decitabine co-treatment for 3 days. IC50s of individual agents and combination index were calculated.\nFinally, BCX-010CL, HCC-1954, HCC-1143, and MDA-MB-157 cells were treated with Sacituzumab govitecan at serial dilutions, with or without decitabine co-treatment for 3 days. IC50s of individual agents and combination index were calculated."}, "[4]": {"system": "DNMT1, DNMT3A, and DNMT3B", "assay": "Immunoblotting of DNA methyltransferases (DNMTs)", "assay_type": "cell-based, human", "conditions": "breast cancer cell lines; 1 μM for 3 days; FIG. 3B", "procedure": "as §1"}, "BCX-010 cells": {"system": "BCX-010 cells", "assay": "Colony formation assay, BCX-010 control and Zeb1 knockdown", "assay_type": "cell-based, human", "conditions": "BCX-010 control and Zeb1 knockdown cells; decitabine 5 nM, sacituzumab govitecan 20 nM, 14 days", "procedure": "FIGS. 7A-7B show a colony assay of BCX-010 cells transfected with control shRNA (FIG. 7A) or Zeb1 shRNA (FIG. 7B) after treatment with vehicle, sacituzumab govitecan (20 nM), and/or decitabine (5 nM) for 14 days. After 14 days, cell colonies formed on the plates, were fixed with 10% formalin, and stained with 0.05% crystal violet. […] Annexin V positive apoptotic cells were measured by flow cytometry. Percentage of apoptotic cells over total cell populations was calculated.\nIn order to determine the effect of decitabine and/or Zeb1 knockdown treatment on sacituzumab govitecan activity, colony formation assays were performed in BCX-010 breast cancer cells. BCX-010 cells (control and Zeb1 knockdown) were seeded into 6-well plates at 1000 cells/well. Cells were treated with decitabine (5 nM) and/or sacituzumab govitecan ([…]) for 14 days. Culture medium with replaced with culture medium containing fresh drugs twice. After 14 days, cell colonies form on the plates were fixed with 10% formalin and stained with 0.05% crystal violet. Total colony area and colony number were quantified using ImageJ software."}, "TROP2 promoter": {"system": "TROP2 promoter", "assay": "Methylation-specific PCR of TROP2 promoter CpG region", "conditions": "BCX-010 cells; decitabine 1 μM; FIG. 3A", "description": "Genomic DNA was extracted from BCX-010CL and BCX-011CL cells treated decitabine at 1 μM for 3 days, or from ZEB1 knockdown cells, and then subjected bisulfite CT conversion, followed by MSP using methylation specific primers specific to a CpG region in the TROP2 promoter. GAPDH was used as a control.\nFollowing treatments, cells were lysed and genomic DNA (gDNA) was extracted using Genomic DNA Purification Kit (ThermoFisher) according to manufacturer's manual. Bisulfite CT conversion of quantitated gDNA was performed using EZ DNA Methylation Kit (Zymo Research) following manufacturer's manual. MSP of TROP2 promoter CpG region was performed using a methylation forward primer, a methylation reverse primer, an un-methylated forward primer, and an un-methylated reverse primer. PCR condition was set up as following: 94° C., 1 minute; [94° C., 30 seconds, 62° C., 30 seconds, 72° C., 45 seconds]×40 cycles; 72° C., 2 minutes, 4° C. About 200 bp PCR product was separated by 2% agarose gel."}, "TROP2 mRNA": {"system": "TROP2 mRNA", "assay": "Quantitative RT-PCR of TROP2 mRNA", "assay_type": "cell-based, human", "conditions": "decitabine 1 μM, three days; BCX-010 (control or Zeb1 shRNA) and Sum-159 cells", "description": "Following treatments, cells were lysed and total RNA was extracted using GeneJet RNA Purification Kit (ThermoFisher) according to manufacturer's manual. cDNA was synthesized from RNA using High-Capacity RNA-to-cDNA Kit (ThermoFisher) following manufacturer's manual. DNA amount in cDNA samples were quantitated using Qubity dsDNA Kit (ThermoFisher). Real time PCR was performed with the same amount DNA from each sample using TaqMan Universal PCR Master Mix Kit (ThermoFisher), under the PCR conditions: 50° C., 2 minutes; 95° C., 10 minutes; [95° C., 15 seconds, 60° C., 1 minutes]×35 cycles. Fold changes of mRNA expression levels were calculated using formula 2^rrCT (rrCT: cycle threshold of treatment group-cycle threshold of control group).\nBCX-010 cells (FIG. 2A) and Sum-159 cells (FIG. 2B) were treated decitabine (1 μM), panobinostat (20 nM), or DMSO for three days. Total RNA was extracted from the treated cells using GeneJet RNA kit, followed by reverse transcription using High Capacity RNA-to-cDNA kit. cDNAs were quantitated using Qubit DNA kit. Quantitative real time PCR (qPCR) was performed using Taqman Universal PCR Master Mix kit with a TROP2 probe. Relative TROP2 levels were obtained by normalization with GAPDH. Additionally, BCX-010CL cells were treated with shRNA control or ZEB1 shRNA (FIG. 2C)."}, "Sum-159 cells": {"system": "Sum-159 cells", "assay": "Colony formation assay, Sum-159", "assay_type": "cell-based, human", "conditions": "sacituzumab govitecan 200 nM, decitabine 200 nM", "procedure": "FIGS. 6A-6E show a colony assay of BCX-010 (FIGS. 6A-6B), BCX-011 (FIG. 6C-6D), and Sum-159 cells ([…]) after treatment with vehicle, sacituzumab govitecan (200 nM), and/or decitabine (200 nM) for 10 days. FIGS. 6A-6C show agar plates after 10 days of colony formation.\nIn order to determine the effect of decitabine treatment on sacituzumab govitecan activity, colony formation assays were performed in BCX-010 cells (FIGS. 6A-6B), BCX-011 cells (FIG. 6C-6D), and Sum-159 breast cancer cells (FIG. 6E-6F).\nCells were seeded in 6-well plates at a density of 1000 cells per well in triplicates for each treatment group. Next day, cells were treated with single drugs, or combination at the different concentrations. Culture medium was changed with fresh drugs twice a week. Cells were cultured for 3 weeks. Cell colonies were then fixed in 10% formalin and stained with 0.05% crystal violet in 25% methanol. The stained colonies were imaged and total colony area was quantitated using NIH ImageJ v.1.48 software. Effect-based Combination Index (CI) was calculated by inhibition percentage of single drug and combination treatments using Bliss combination model. CI=((EA+EB)−(EA*EB))/EAB, where EA, EB, and EAB are effects of drug A, B and combination AB inhibition percentage. Here the effect is inhibition percentage of colony formation compared to vehicle controls. […]"}, "BCX-010CL cells": {"system": "BCX-010CL cells", "assay": "Cell survival assay of SN-38 with or without decitabine", "assay_type": "cell-based, human", "conditions": "decitabine co-treatment, 3 days, FIG. 10B", "description": "BCX-010CL cells were treated with SN-38 at serial dilutions, with or without decitabine co-treatment for 3 days. IC50s of individual agents and combination index were calculated.\nBCX-010CL cells were also treated with SN-38 at serial dilutions, with or without decitabine co-treatment for 3 days. IC50s of individual agents and combination index were calculated."}, "E-cadherin": {"system": "E-cadherin", "assay": "Immunoblotting of E-cadherin in breast cancer cell lines", "assay_type": "cell-based, human", "conditions": "BCX-010CL cells", "procedure": "as §1, §2, §3"}, "TROP2 [5]": {"system": "TROP2", "assay": "Immunocytochemistry of TROP2 in SUM159 cells", "assay_type": "cell-based, human", "conditions": "1 μM for 3 days", "procedure": "SUM159 cells were treated with decitabine at 1 μM for 3 days. After cell fixation, cell pellet blocks were processed and probed with anti-TROP2 antibody, followed by hematoxylin staining.\nAfter cell fixation, cell pellet blocks were processed and probed with anti-TROP2 antibody, followed by hematoxylin staining (FIG. 2D).\nFormalin-fixed paraffin-embedded (FFPE) cell lines/tissue of 4-micron thickness slides were baked at 60° C. for 1 hour. IHC staining was performed using Leica BondRXm autostainer (Leica Biosystems) for further processing. In brief, after deparaffinized by bond dewax solution, epitope retrieval (HIER) was performed with citrate buffer pH6, followed by washing steps. After peroxidase blocking (3% H2O2) for 20 minutes, slides were incubated in TROP2 rabbit monoclonal [EPR20043], catalog #ab214488 with a 1:2000 dilution for 15 minutes at ambient temperature. After transient washing, post-primary and polymer incubation for 8 min, followed by hematoxylin staining and wash steps. Afterwards, the slides were unloaded from autostainer, air dried and cover slipped with mounting media (Cytoseal XYL mounting media)."}}, "data": [{"compound": "Nc1ncn([C@H]2C[C@H](O)[C@@H](CO)O2)c(=O)n1", "note": "[decitabine, 5-Aza-2′-deoxycytidine]", "values": [{"measurement": "apoptosis (Annexin V positive cells)", "setting": "[1]", "result": "induced cell apoptosis in BCX-010 and Sum-159 cells"}, {"measurement": "SLFN11 expression (immunoblot)", "setting": "SLFN11", "result": "increases SLFN11 expression"}, {"measurement": "TROP2 protein expression", "setting": "TROP2 [2]; 1 μM for 3 days, BCX-011, BCX-010, Sum-159, BCX-010 control shRNA, BCX-010 Zeb1 shRNA, FIG. 1B", "result": "increased TROP2 protein expression in all 5 cell lines"}, {"measurement": "TROP2 expression, panel of epigenetic modulators (immunoblot)", "setting": "TROP2 [2]; BCX-010CL, BCX-011CL, SUM159 cells, 3 days, FIG. 1D", "result": "most effective enhancer of TROP2 expression"}, {"measurement": "sensitization of cells to Sacituzumab govitecan (cell survival)", "setting": "[3]", "result": "sensitizes cells to Sacituzumab govitecan in breast cancer cell lines"}, {"measurement": "protein levels of DNMT1, DNMT3A, and DNMT3B", "setting": "[4]", "result": "decreased protein levels of three DNMT isoforms"}, {"measurement": "colony formation", "setting": "BCX-010 cells", "result": "inhibited cell colony formation"}, {"measurement": "TROP2 promoter methylation (MSP)", "setting": "TROP2 promoter", "result": "decreased TROP2 promoter methylation"}, {"measurement": "TROP2 mRNA expression (qPCR, normalized with GAPDH)", "setting": "TROP2 mRNA", "result": "increased TROP2 mRNA expression in all cell lines"}, {"measurement": "colony formation", "setting": "Sum-159 cells", "result": "inhibited cell colony formation in Sum-159 cells"}, {"measurement": "sensitization of cells to SN-38 (cell survival)", "setting": "BCX-010CL cells", "result": "sensitizes cells to SN-38 in BCX-010CL cells"}, {"measurement": "E-cadherin expression", "setting": "E-cadherin", "result": "increased E-cadherin expression"}, {"measurement": "TROP2 expression (immunocytochemistry)", "setting": "TROP2 [5]", "result": "increases TROP2 expression in SUM159 cells"}]}]}
